Columns and labels:
TRPV1 [1] = conditions: ref [14], cited from earlier work
Procedure: APHC3’s mode of action was measured on HEK-293 cells using a whole-cell patch clamp approach and single cell Ca^2+ imaging. […] APHC3 is highly homologous to APHC1, differing in four of 56 amino acids. APHC1 and APHC3 have a primary structure that is highly homologous to BPTI/Kunitz type seri ... || The residues responsible for APHC’s activity are not determined. […] These dif ...

TRPV1 [2] = assay: single cell Ca^2+ imaging, acid-induced (pH 5.5) responses of TRPV1-positive HEK-293 cells; type: cell-based, rat; conditions: for inhibition of acid responses: Fura-2, mean ± s.d.
Procedure: Figure 2 Effects of APHC3 on recombinant TRPV1 expressed in HEK-293 cells. (a) Resting current recorded from a TRPV1-positive cell held at −30 mV. […] Straight lines above the recording indicate application of APHC3 (Long line) and capsaicin (Short lines). The cells were stimulated and rinsed by rapid switching of the bath solution between the control solution and solutions containing the indicated compound. (b) Capsaicin responses in control and in the presence of the 300 nM APHC3 peptide. In each case, the control response was calculated as an average of two acid responses recorded just prior to peptide application. Averaged responses recorded in the presence of APHC3 were normalized to averaged control responses. Those are presented as the mean ± s.d. (n = 4). […] (c, d) Cell responses to the acidification of the bath solution from pH 7.4 to pH 5.5 in control and in the presence of the APHC3 applied at different concentrations as indicated. The experimental traces in (c) and in (d, upper trace) illustrate representative responses of EGFP/TRPV1-positive cells. The bottom trace in (d) represents responses of an EGFP/TRPV1-negative cell assayed simultaneously. (e) Acid responses recorded in the presence of APHC3 (90, 160 and 240 nM) normalized to a control response. The data are presented as the mean ± s.d. (n = 5–10). […] In each case, the control response was calculated as an average of the two acid responses recorded just prior to peptide application. The average of the two acid responses recorded after peptide application was calculated and normalized to the control response. Experimental traces in (c, d) were obtained from three different cells. The changes in bath solution pH (continuous lines) and APHC3 applications (thick straight lines) are shown above the fluorescence traces. Cells were stimulated and rinsed by a rapid replacement of the control bath solution with modified bath solution at pH 5.5 with or without APHC3.
HEK-293 cells were cultured in Dulbecco’s modified Eagle’s medium (DMEM) (Life Technologies, Grand Island, NY, USA) containing 10% (vol/vol) fetal bovine serum (Thermo Fisher Scientific, Palm Beach, FL, USA), glutamine (1%) and the antibiotic gentamicin (100 μg/mL) (Life Technologies, Grand Island, NY, USA). The pIRES2-EGFP plasmid harboring rat TRPV1 cDNA was transiently transfected into HEK-293 cells by replacing the growth medium in each well with a transfection mixture, containing 1.6 μg of DNA and 4 μL of Lipofectamine (Life Technologies, Grand Island, NY, USA) in 1 mL of serum-free DMEM. After incubating for 6 h, the transfection mixture was replaced with normal culture medium. Cells were assayed within 48–96 h after transfection.

| Substance | inhibition of capsaicin-induced currents (TRPV1 [1]; more than 200 nM) | activity on capsaicin-induced TRPV1 currents, in words (TRPV1 [1]; previous study) | reversibility of inhibitory effects (TRPV1 [2]; after washout of the polypeptide, Figure 2a,c,d (capsaicin currents and acid responses)) | inhibition of acid-induced Ca^2+ transients, significance (TRPV1 [2]; pH 5.5, 160 and 240 nM, Student test, p < 0.05) | inhibition of acid responses, in words (TRPV1 [2]; pH 5.5, APHC3 90 nM, n = 5) | inhibition of acid responses (TRPV1 [2]; pH 5.5, APHC3 160 nM, n = 7) | inhibition of acid responses (TRPV1 [2]; pH 5.5, APHC3 240 nM, 10 cells) |
| --- | --- | --- | --- | --- | --- | --- | --- |
| APHC1: polypeptide modulator of TRPV1 from sea anemone Heteractis crispa; homologous to BPTI/Kunitz type serine-protease inhibitors; produced recombinantly in E. coli (GSICLEPKVVGPCTAYFRRFYFDSETGKCTVFIYGGCEGNGNNFETLRACRAICRA; left off: TRX, end not stated, cleaved) | ~ 32% | partial antagonist | – | – | – | – | – |
| APHC3: polypeptide from Heteractis crispa highly homologous to APHC1, differing in four of 56 amino acids; produced recombinantly in E. coli (GSICLEPKVVGPCTAYFPRFYFNSETGKCTPFIYGGCEGNGNNFETLRACRGICRA; left off: TRX, end not stated, cleaved) | – | – | almost completely reversible | statistically significant at 160 and 240 nM | insignificantly effective | 15% ± 9% | 77% ± 14% |
